US10874103B2, “Antibacterial composition comprising an acetal or a long-chain alkyl hexitane ether” (TEREOS STARCH & SWEETENERS BELGIUM, priority 2014, dated 2020)
Values after ≈ are worked out from the molar mass of the structure shown.

What was measured:
[1] = test system: E. faecalis (ATCC® 29212™); assay: MIC, 96-well microplate microdilution (Example 4); format: cell-based; details: 18 h at 37° C.; for MIC: Enterococcus faecalis, ATCC29212, Mueller-Hinton medium, read-out: Minimum inhibitory concentration (MIC) E. faecalis
Protocol: (§1) The bacteriostatic properties of the derivatives are evaluated by measuring their minimum inhibitory concentration (MIC) on the bacteria tested. Such a measurement is made using the 96-well microplate microdilution method according to the conditions defined below.
(§2) The minimum inhibitory concentrations (MIC) are tested on Gram-positive bacterial strains according to the recommendations of the “Clinical Laboratory Standards Institute” (Clinical-Laboratory-Standards-Institute, 6th ed. Approved standard M100-S17. CLSI, Wayne, Pa., 2007).
(§3) The Gram-positive bacteria studied are as follows: L. monocytogenes (CIP 103575), E. faecalis (ATCC® 29212™) and S. aureus (ATCC® 292213™).
(§4) The cultures studied, freshly isolated (after incubation on a blood agar at 37° C. for 18 h), are taken up in sterile water (10 mL) until a 0.5 McFarland (Mc) suspension i.e. 1 to 2×10^8 CFU (bacteria)/cm^3 is obtained. The bacterial suspension was then diluted to obtain a final concentration of 5×10^5 CFU/cm^3.
(§5) Each well contains an identical quantity of Mueller-Hinton medium (a rich medium for bacterial culture) and bacteria with final 5×10^5 CFU/cm^3.
(§6) The test compounds of interest are solubilized in 2.5% m of ethanol before being diluted to different concentrations two by two.
(§7) On the multiwell plate, a first series has been planned comprising the culture medium without the test compound of interest. It corresponds to the growth control (control well). These controls serve as reference for comparing bacterial growth with that of the subsequent wells comprising different concentrations of the test compound of interest. The second series of wells comprises the mother solution for the test compound of interest for a concentration in the wells of 4 mM. Each series of wells was diluted two by two until the last series for a final concentration of 0.003 mM. Each concentration is duplicated in the same plate. The plate is incubated for 18 h at 37° C. […] If there is antibacterial activity, the bacterial growth is inhibited, which means that no turbidity or bacterial residue is present.
(§8) Tests have been conducted on Gram-positive bacteria with sorbitan derivatives. […] After sterilization the solutions are diluted in water. The results obtained for antimicrobial tests on the 3 bacterial strains L. monocytogenes (CIP 103575), E. faecalis (ATCC® 29212™) and S. aureus (ATCC® 292213™) are summarized in Table 1.

[2] = test system: L. monocytogenes (CIP 103575); assay: MIC, 96-well microplate microdilution (Example 4); format: cell-based; details: 18 h at 37° C.; for MIC: Listeria monocytogenes, CIP103575, Mueller-Hinton medium, read-out: Minimum inhibitory concentration (MIC) L. monocytogenes; for Minimum inhibitory concentration (MIC) L. monocytogenes: Mueller-Hinton medium
Protocol: as §1, §2, §3, §4, §5, §6, §7, §8

[3] = test system: S. aureus (ATCC® 292213™); assay: MIC, 96-well microplate microdilution (Example 4); format: cell-based; details: for MIC: Staphylococcus aureus, ATCC292213, read-out: Minimum inhibitory concentration (MIC) S. aureus; for MIC / Minimum inhibitory concentration (MIC) S. aureus: ATCC 292213, Mueller-Hinton medium, 18 h at 37° C.
Protocol: as §1, §2, §3, §4, §5, §6, §7, §8

[4] = test system: E. faecalis (ATCC® 29212™); assay: MBC, bacterial count from clear wells reseeded on agar (Example 5); format: cell-based
Protocol: (§9) To determine whether the agents tested are bactericidal, the minimum bactericidal concentration (MBC) is determined. The MBC corresponds to the concentration leaving a number of bacterial survivors of <4 log. For this, a bacterial count is run from clear wells or without bacterial residue (C≤MIC). To do this, a dilution to 1/100 was conducted with the two wells with the same concentration before seeding on a blood agar using the Spiral technique. After 24 h of incubation at 37° C., the visual count allowed determination of the minimum concentration from which there is no bacterial growth.
(§10) To determine the bactericidal effect of compounds presenting bacteriostatic properties, the wells no longer presenting turbidity were reseeded on agar.

[5] = test system: L. monocytogenes (CIP 103575); assay: as above; format: cell-based
Protocol: as §9, §10

[6] = Critical micelle concentration (surfactant properties, Example 6); format: physicochemical
From the text: The physical, chemical and antimicrobial properties for the best products synthesized have been tested. These analyses show the different surfactant profiles, and the minimum inhibitory concentrations (MIC) for each compound on Gram-positive bacteria. The best surfactant and antimicrobial results are compared in Table 3.

[7] = test system: L. monocytogenes (CIP 103575), E. faecalis (ATCC® 29212™) and S. aureus (ATCC® 292213™); assay: MIC microdilution, statements for all three Gram-positive strains together; format: cell-based
Protocol: as §1, §2, §3, §4, §5, §6
On the multiwell plate, a first series has been planned comprising the culture medium without the test compound of interest. […]

| Compound | MIC [1] [mM] | MIC [2] [mM] | MIC [3] [mM] | also measured |
| --- | --- | --- | --- | --- |
| CCCCCCOCC(O)[C@H]1OCC(O)C1O (stereo partly drawn) [Example 2b, Hexyl-1,4-D-sorbitan] | > 4 | > 4 | > 4 | – |
| CCCCC1OCC([C@H]2OCC(O)C2O)O1 (stereo partly drawn) [Example 1a, 5,6-O-Pentylidene-1,4-D-sorbitan 1a and 1a′ and 3,5-O-pentylidene-1,4-D-sorbitan 1a″ and 1a′″] | > 4 | > 4 | > 4 | – |
| CCCCCCCCCCOCC(O)[C@H]1OCC(O)C1O (stereo partly drawn) [Example 2d, Decyl-1,4-d-sorbitan] | > 4 | > 4 | > 4 | – |
| 5,6-O-Dodecylidene-1,4-D-sorbitan 1e and 1e′ and 3,5-O-dodecylidene-1,4-D-sorbitan 1e′ and 1e′″ [Example 1e] | – | – | – | Minimum inhibitory concentration (MIC) E. faecalis ([1]; Mueller-Hinton medium): 0.03 mM; Minimum inhibitory concentration (MIC) L. monocytogenes [2]: 0.03 mM; bacteriostatic concentration for S. aureus [3]: 0.12 mM; Minimum inhibitory concentration (MIC) S. aureus [3]: 0.12 mM; bactericidal concentration for E. faecalis [4]: 0.03 mM; minimum bactericidal concentration (MBC) E. faecalis ([4]; Table 2, reseeded on agar): 0.03 mM; bactericidal concentration for L. monocytogenes [5]: 0.03 mM; minimum bactericidal concentration (MBC) L. monocytogenes ([5]; Table 2, reseeded on agar): 0.03 mM; CMC (critical micelle concentration) [6]: 0.034 mM |
| CCCCCOCC(O)[C@H]1OCC(O)C1O (stereo partly drawn) [Example 2a, Pentyl-1,4-D-sorbitan] | > 4 | > 4 | > 4 | – |
| CCCCCCCC1OCC([C@H]2OCC(O)C2O)O1 (stereo partly drawn) [Example 1c, 5,6-O-Octylidene-1,4-D-sorbitan 1c and 1c′ and 3,5-O-octylidene-1,4-D-sorbitan 1c″ and 1c′″] | > 4 | > 4 | > 4 | – |
| CCCCCCCCCCCC(=O)OCC(O)CO (stereo not drawn) [Monolaurin (ML), monolaurin, reference compound] | – | – | – | Minimum inhibitory concentration (MIC) L. monocytogenes [2]: 0.04 mM (≈ 11 µg/mL); Minimum inhibitory concentration (MIC) S. aureus [3]: 0.04 mM (≈ 11 µg/mL) |
| CCCCCC1OCC([C@H]2OCC(O)C2O)O1 (stereo partly drawn) [Example 1b, 5,6-O-Hexylidene-1,4-D-sorbitan 1b and 1b′ and 3,5-O-hexylidene-1,4-D-sorbitan 1b″ and 1b′″] | > 4 | > 4 | > 4 | – |
| CCCCCCCCCCCC=O [dodecanal, reference compound] | – | – | – | MIC / inhibitory concentration on the bacterial strains studied [7]: > 4 mM |
| CCCCCCCCCC1OCC([C@H]2OCC(O)C2O)O1 (stereo partly drawn) [Example 1d, 5,6-O-Decylidene-1,4-D-sorbitan 1d and 1d′ and 3,5-O-decylidene-1,4-D-sorbitan 1d′ and 1d′″] | > 4 | > 4 | > 4 | – |
| CCCCCCCCOCC(O)[C@H]1OCC(O)C1O (stereo partly drawn) [Example 2c, Octyl-1,4-D-sorbitan] | > 4 | > 4 | > 4 | – |
